Here are results for 16 compounds from patent US20240246967A1, “AXL COMPOUNDS” (ARCUS BIOSCIENCES, INC., priority 2021, published 2024).

Bounds are passed on as bounds.

What is called IC50 is the point on the concentration scale where inhibition reaches its midpoint. Higher therefore signals weaker potency in that assay.

Test [1] addresses T1, human MER (Homo sapiens, UniProt Q12866).
T1 construct: purchased Invitrogen
T1 sequence (Q12866 21-999): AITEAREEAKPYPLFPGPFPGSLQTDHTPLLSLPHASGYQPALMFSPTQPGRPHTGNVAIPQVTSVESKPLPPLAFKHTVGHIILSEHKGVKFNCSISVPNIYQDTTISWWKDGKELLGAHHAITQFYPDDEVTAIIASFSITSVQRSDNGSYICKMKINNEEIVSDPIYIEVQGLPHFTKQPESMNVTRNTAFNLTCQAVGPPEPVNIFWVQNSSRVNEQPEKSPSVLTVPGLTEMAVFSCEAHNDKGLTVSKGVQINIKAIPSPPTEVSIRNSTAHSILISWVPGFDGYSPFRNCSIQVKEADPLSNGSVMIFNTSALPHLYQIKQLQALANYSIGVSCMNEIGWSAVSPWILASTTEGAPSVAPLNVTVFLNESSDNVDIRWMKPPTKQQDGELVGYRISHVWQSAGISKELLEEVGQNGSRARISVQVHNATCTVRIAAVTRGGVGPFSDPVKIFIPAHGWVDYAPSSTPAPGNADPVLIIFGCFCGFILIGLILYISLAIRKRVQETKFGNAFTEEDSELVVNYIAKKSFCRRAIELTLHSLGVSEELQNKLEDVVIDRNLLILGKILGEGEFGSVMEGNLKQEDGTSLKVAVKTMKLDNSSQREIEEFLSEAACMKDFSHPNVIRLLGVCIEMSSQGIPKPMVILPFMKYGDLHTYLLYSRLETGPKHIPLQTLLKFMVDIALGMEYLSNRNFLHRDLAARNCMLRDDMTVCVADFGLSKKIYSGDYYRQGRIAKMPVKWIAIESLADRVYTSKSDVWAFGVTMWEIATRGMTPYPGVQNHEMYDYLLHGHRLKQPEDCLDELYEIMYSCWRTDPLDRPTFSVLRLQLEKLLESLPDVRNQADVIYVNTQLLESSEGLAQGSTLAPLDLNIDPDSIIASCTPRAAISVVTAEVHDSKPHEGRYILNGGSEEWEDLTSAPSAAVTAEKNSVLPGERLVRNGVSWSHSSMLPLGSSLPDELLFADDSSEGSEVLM
Nature of the test: HTRF KinEASE-TK biochemical potency assay, MER. As to conditions: 1 nM MER, 700 μM ATP, 800 nM TK Substrate-biotin. Summed up:
(§1)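 Final conditions: 5 nM AXL, 1 nM TYRO3 or MER, 50 mM HEPES pH 7.4, 10 mM MgCl2, 0.01% BSA, 1 mM DTT, 700 μM ATP. Reaction ran 2 h at RT after 1 h preincubation with compound; HTRF signal read at 665/620 nm.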

Test [2] concerns the target T2, Axl (Homo sapiens, UniProt P30530).
T2 sequence (P30530 26-894): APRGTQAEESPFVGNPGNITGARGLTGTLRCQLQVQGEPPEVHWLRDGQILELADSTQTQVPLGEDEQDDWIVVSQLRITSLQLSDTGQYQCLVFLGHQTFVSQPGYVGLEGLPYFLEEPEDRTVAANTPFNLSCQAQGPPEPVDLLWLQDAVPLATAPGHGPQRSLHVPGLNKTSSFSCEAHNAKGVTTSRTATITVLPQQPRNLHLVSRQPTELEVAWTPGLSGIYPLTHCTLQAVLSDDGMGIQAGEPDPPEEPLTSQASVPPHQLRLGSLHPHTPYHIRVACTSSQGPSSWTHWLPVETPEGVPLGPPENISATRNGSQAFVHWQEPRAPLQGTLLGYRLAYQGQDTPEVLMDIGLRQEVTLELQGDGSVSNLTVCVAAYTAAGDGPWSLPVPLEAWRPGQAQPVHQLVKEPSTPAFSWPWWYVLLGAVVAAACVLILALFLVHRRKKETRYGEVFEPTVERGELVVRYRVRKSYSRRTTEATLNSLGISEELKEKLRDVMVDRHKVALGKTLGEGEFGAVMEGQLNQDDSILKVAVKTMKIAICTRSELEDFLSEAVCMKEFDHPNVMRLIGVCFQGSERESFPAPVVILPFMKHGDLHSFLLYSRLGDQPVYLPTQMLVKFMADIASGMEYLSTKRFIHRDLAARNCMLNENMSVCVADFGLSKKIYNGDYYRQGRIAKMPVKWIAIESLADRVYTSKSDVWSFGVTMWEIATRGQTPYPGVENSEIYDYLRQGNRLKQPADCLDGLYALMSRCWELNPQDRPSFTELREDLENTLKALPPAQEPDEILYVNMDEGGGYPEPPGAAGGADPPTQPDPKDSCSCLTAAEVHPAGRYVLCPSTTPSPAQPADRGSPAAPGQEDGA
Nature of the test: HTRF KinEASE-TK biochemical potency assay, AXL. As to conditions: 5 nM AXL, 700 μM ATP, 800 nM TK Substrate-biotin. On the set-up: purchased Invitrogen. Summed up: as §1
A general note: In TR-FRET formats the signal depends on donor and acceptor labels being close together.

With `CCS(=N)(=O)c1ccc(-c2n[nH]c3ncc(-c4ccc5c(c4)CCC(C)(N4CCC[C@H]4C)CC5)cc23)cc1` (stereo partly drawn) [Example 100, Ethyl(imino)[4-(5-{7-methyl-7-[(2R)-2-methylpyrrolidin-1-yl]-6,7,8,9-tetrahydro-5H-benzo[7]annulen-2-yl}-1H-pyrazolo[3,4-b]pyridin-3-yl)phenyl]-λ^6-sulfanone], the results for the IC50 in test [1] and in test [2] were 100 to 1000 nM and under 100 nM, respectively.

As to `C[C@@H]1CCCN1[C@@H]1CCc2cc(-c3cnc4[nH]nc(-c5ccc(S(=O)(=O)C6CC6)cc5)c4c3)cnc2CC1` [Example 101, (2R)-1-(3-{3-[4-(Cyclopropanesulfonyl)phenyl]-1H-pyrazolo[3,4-b]pyridin-5-yl}-5H,6H,7H,8H,9H-cyclohepta[b]pyridin-7-yl)-2-methylpyrrolidine], the IC50 in test [1] is over 1000 nM; in test [2], under 100 nM.

Turning to `C[C@@H]1CCCN1[C@H]1CCc2cc(-c3cnc4[nH]nc(-c5ccc(S(=O)(=O)C6CC6)cc5)c4c3)cnc2CC1` [Example 102, (2R)-1-[(7S)-3-{3-[4-(Cyclopropanesulfonyl)phenyl]-1H-pyrazolo[3,4-b]pyridin-5-yl}-5H,6H,7H,8H,9H-cyclohepta[b]pyridin-7-yl]-2-methylpyrrolidine], the figures for the IC50 in test [1] and in test [2] were over 1000 nM and 100 to 1000 nM, respectively.

`COC1CCN(S(=O)(=O)c2ccc(-c3n[nH]c4ncc(-c5ccc6c(c5)CCC(C)(N5CCC[C@H]5C)CC6)cc34)cc2)CC1` (stereo partly drawn) [Example 103, 3-(4-((4-Methoxypiperidin-1-yl)sulfonyl)phenyl)-5-(7-methyl-7-((R)-2-methylpyrrolidin-1-yl)-6,7,8,9-tetrahydro-5H-benzo[7]annulen-2-yl)-1H-pyrazolo[3,4-b]pyridine]: the IC50 in test [1] was over 1000 nM; in test [2], under 100 nM.

`C[C@@H]1CCCN1C1(C)CCc2ccc(-c3cnc4[nH]nc(-c5ccc(S(=O)(=O)N6CCC6)cc5)c4c3)cc2CC1` (stereo partly drawn) [Example 104, (2R)-1-(2-{3-[4-(Azetidine-1-sulfonyl)phenyl]-1H-pyrazolo[3,4-b]pyridin-5-yl}-7-methyl-6,7,8,9-tetrahydro-5H-benzo[7]annulen-7-yl)-2-methylpyrrolidine]: the IC50 in test [1] is 100 to 1000 nM; in test [2], under 100 nM.

Regarding `C[C@@H]1CCCN1C1(C)CCc2ccc(-c3cnc4[nH]cc(-c5ccc(S(=O)(=O)C6CC6)cc5)c4c3)cc2CC1` (stereo partly drawn) [Example 105, (2R)-1-(2-{3-[4-(Cyclopropanesulfonyl)phenyl]-1H-pyrrolo[2,3-b]pyridin-5-yl}-7-methyl-6,7,8,9-tetrahydro-5H-benzo[7]annulen-7-yl)-2-methylpyrrolidine], the figures for the 50% inhibitory concentration (IC50) in test [1] and in test [2] were over 1000 nM and under 100 nM, respectively.

On to `C[C@@H]1CCCN1C1(C)CCc2ccc(-c3cnc4[nH]nc(-c5ccc(N6CCOCC6)cc5)c4c3)cc2CC1` (stereo partly drawn) [Example 107, 4-[4-(5-{7-Methyl-7-[(2R)-2-methylpyrrolidin-1-yl]-6,7,8,9-tetrahydro-5H-benzo[7]annulen-2-yl}-1H-pyrazolo[3,4-b]pyridin-3-yl)phenyl]morpholine], for which the results for the IC50 in test [1] and in test [2] were over 1000 nM and under 100 nM, respectively.

`COCCNCc1ccc(-c2n[nH]c3ncc(-c4ccc5c(c4)CCC(C)(N4CCC[C@H]4C)CC5)cc23)cc1` (stereo partly drawn) [Example 108, (2-Methoxyethyl)({[4-(5-{7-methyl-7-[(2R)-2-methylpyrrolidin-1-yl]-6,7,8,9-tetrahydro-5H-benzo[7]annulen-2-yl}-1H-pyrazolo[3,4-b]pyridin-3-yl)phenyl]methyl})amine]: the IC50 in test [1] was over 1000 nM; in test [2], under 100 nM.

As to `C[C@@H]1CCCN1C1CCc2ccc(-c3cnc4[nH]nc(-c5ccc(S(=O)(=O)C6CC6)cc5)c4c3)cc2C(C)(C)C1` (stereo partly drawn) [Example 109, (2R)-1-(2-{3-[4-(Cyclopropanesulfonyl)phenyl]-1H-pyrazolo[3,4-b]pyridin-5-yl}-9,9-dimethyl-6,7,8,9-tetrahydro-5H-benzo[7]annulen-7-yl)-2-methylpyrrolidine], the results for the IC50 in test [1] and in test [2] were over 1000 nM and under 100 nM, respectively.

`COCCOc1ccc(-c2n[nH]c3ncc(-c4ccc5c(c4)CCC(C)(N4CCC[C@H]4C)CC5)cc23)cc1` (stereo partly drawn) [Example 110, 3-(4-(2-Methoxyethoxy)phenyl)-5-(7-methyl-7-((R)-2-methylpyrrolidin-1-yl)-6,7,8,9-tetrahydro-5H-benzo[7]annulen-2-yl)-1H-pyrazolo[3,4-b]pyridine]: the IC50 in test [1] was 100 to 1000 nM; in test [2], under 100 nM.

Turning to `COCCS(=O)(=O)c1ccc(-c2n[nH]c3ncc(-c4ccc5c(c4)CCC(C)(N4CCC[C@H]4C)CC5)cc23)cc1` (stereo partly drawn) [Example 111, (2R)-1-(2-{3-[4-(2-Methoxyethanesulfonyl)phenyl]-1H-pyrazolo[3,4-b]pyridin-5-yl}-7-methyl-6,7,8,9-tetrahydro-5H-benzo[7]annulen-7-yl)-2-methylpyrrolidine], the IC50 in test [1] was 100 to 1000 nM; in test [2] it was under 100 nM.

As for `O=C([C@@H]1CCCN1)N1CCc2ccc(-c3cnc4[nH]nc(-c5ccc(S(=O)(=O)C6CC6)cc5)c4c3)cc2CC1` [Example 112, 7-{3-[4-(Cyclopropanesulfonyl)phenyl]-1H-pyrazolo[3,4-b]pyridin-5-yl}-3-[(2S)-pyrrolidine-2-carbonyl]-2,3,4,5-tetrahydro-1H-3-benzazepine], the IC50 in test [1] is over 1000 nM; in test [2], under 100 nM.

With `O=C([C@H]1CCCN1)N1CCc2ccc(-c3cnc4[nH]nc(-c5ccc(S(=O)(=O)C6CC6)cc5)c4c3)cc2CC1` [Example 113, 7-{3-[4-(Cyclopropanesulfonyl)phenyl]-1H-pyrazolo[3,4-b]pyridin-5-yl}-3-[(2R)-pyrrolidine-2-carbonyl]-2,3,4,5-tetrahydro-1H-3-benzazepine], the results for the IC50 in test [1] and in test [2] were over 1000 nM and under 100 nM, respectively.

Take `COc1cc(-c2n[nH]c3ncc(-c4ccc5c(c4)CCC(C)(N4CCC[C@H]4C)CC5)cc23)ccc1OC[C@H]1COCCO1` (stereo partly drawn) [Example 114, (2R)-1-{2-[3-(4-{[(2R)-1,4-Dioxan-2-yl]methoxy}-3-methoxyphenyl)-1H-pyrazolo[3,4-b]pyridin-5-yl]-7-methyl-6,7,8,9-tetrahydro-5H-benzo[7]annulen-7-yl}-2-methylpyrrolidine]: the IC50 was over 1000 nM in test [1] and under 100 nM in test [2].

As for `CC1(N[C@H]2CCOC2)CCc2ccc(-c3cnc4[nH]nc(-c5ccc(S(=O)(=O)C6CC6)cc5)c4c3)cc2CC1` (stereo partly drawn) [Example 115, (3S)-N-(2-{3-[4-(Cyclopropanesulfonyl)phenyl]-1H-pyrazolo[3,4-b]pyridin-5-yl}-7-methyl-6,7,8,9-tetrahydro-5H-benzo[7]annulen-7-yl)oxolan-3-amine], the IC50 was 100 to 1000 nM in test [1] and under 100 nM in test [2].

With `C[C@@H]1CCCN1C1(C)CCc2ccc(-c3cnc4[nH]nc(-c5ccc(C(=O)N[C@H]6CCOC6)cc5)c4c3)cc2CC1` (stereo partly drawn) [Example 117, 4-(5-{7-Methyl-7-[(2R)-2-methylpyrrolidin-1-yl]-6,7,8,9-tetrahydro-5H-benzo[7]annulen-2-yl}-1H-pyrazolo[3,4-b]pyridin-3-yl)-N-[(3S)-oxolan-3-yl]benzamide], the IC50 in test [1] was over 1000 nM; in test [2] it was under 100 nM.
